Data as given in ChEMBL document CHEMBL4024785 (J Med Chem, 2018).

Tests used:
Carbonic anhydrase 1 = Carbonic anhydrase 1 (Homo sapiens, UniProt P00915)
Description: Inhibition of recombinant human carbonic anhydrase 1 expressed in Escherichia coli L21-GOLD (DE3) incubated for 10 mins prior to testing by stopped-flow CO2 hydration assay

Carbonic anhydrase 12 = Carbonic anhydrase 12 (Homo sapiens, UniProt O43570)
Description: Inhibition of recombinant human carbonic anhydrase 12 expressed in Escherichia coli L21-GOLD (DE3) incubated for 10 mins prior to testing by stopped-flow CO2 hydration assay

Carbonic anhydrase 9 = Carbonic anhydrase 9 (Homo sapiens, UniProt Q16790)
Description: Inhibition of recombinant human carbonic anhydrase 9 expressed in Escherichia coli L21-GOLD (DE3) incubated for 10 mins prior to testing by stopped-flow CO2 hydration assay

Chain of Carbonic anhydrase 12 (O43570 whole entry): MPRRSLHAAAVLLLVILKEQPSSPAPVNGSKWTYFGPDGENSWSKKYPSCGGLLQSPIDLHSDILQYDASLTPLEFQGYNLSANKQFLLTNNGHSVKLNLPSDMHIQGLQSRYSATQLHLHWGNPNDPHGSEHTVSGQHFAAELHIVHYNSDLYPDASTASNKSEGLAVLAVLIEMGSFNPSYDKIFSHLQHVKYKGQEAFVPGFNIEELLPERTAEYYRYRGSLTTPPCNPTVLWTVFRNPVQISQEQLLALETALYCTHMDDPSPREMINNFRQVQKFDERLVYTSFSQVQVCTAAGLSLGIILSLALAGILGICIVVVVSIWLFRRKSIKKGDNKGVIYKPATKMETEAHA
Chain of Carbonic anhydrase 1 (P00915 whole entry): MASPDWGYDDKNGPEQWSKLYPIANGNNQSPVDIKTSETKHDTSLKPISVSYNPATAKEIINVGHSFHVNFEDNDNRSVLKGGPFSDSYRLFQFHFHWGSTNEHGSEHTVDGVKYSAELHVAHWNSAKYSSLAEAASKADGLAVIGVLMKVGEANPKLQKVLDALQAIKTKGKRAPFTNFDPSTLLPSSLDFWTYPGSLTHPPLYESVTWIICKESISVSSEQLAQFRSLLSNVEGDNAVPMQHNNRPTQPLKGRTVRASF

Ki (Carbonic anhydrase 1): > 20 µM
Ki (Carbonic anhydrase 12): 650 nM
Ki (Carbonic anhydrase 9): 100 nM
Compound: O=C1NS(=O)(=O)c2ccccc21 [SACCHARIN]
